The NIST ThermoML archive (doi:10.1016/j.fluid.2010.10.028)

Assay: xn = mol fraction of the nth substance listed
Conditions: Liquid, Vibrating tube method

CC(C)=O [acetone] + CCCCCCC
Conditions | mass density [kg/m3]
377.4 K, 104790 kPa, x1 = 0.492 | 730.51
377.4 K, 104810 kPa, x1 = 0.801 | 762.89
377.4 K, 109780 kPa, x1 = 0.492 | 733.39
377.4 K, 109790 kPa, x1 = 0.801 | 765.94
377.4 K, 109820 kPa, x1 = 0.7024 | 753.96
377.4 K, 109850 kPa, x1 = 0.611 | 743.53
377.4 K, 114760 kPa, x1 = 0.801 | 768.91
377.4 K, 114820 kPa, x1 = 0.7024 | 756.89
377.4 K, 114850 kPa, x1 = 0.611 | 746.4
377.4 K, 119800 kPa, x1 = 0.7024 | 759.71
377.4 K, 119830 kPa, x1 = 0.492 | 738.96
377.4 K, 119830 kPa, x1 = 0.801 | 771.84
377.4 K, 124810 kPa, x1 = 0.7024 | 762.48
377.4 K, 124850 kPa, x1 = 0.492 | 741.61
377.4 K, 124850 kPa, x1 = 0.801 | 774.66
377.4 K, 129810 kPa, x1 = 0.7024 | 765.17
377.4 K, 129840 kPa, x1 = 0.611 | 754.52
377.4 K, 129840 kPa, x1 = 0.801 | 777.42
377.4 K, 129850 kPa, x1 = 0.492 | 744.18
377.41 K, 1430 kPa, x1 = 0.4 | 667.78
377.41 K, 1430 kPa, x1 = 0.8992 | 667.78
377.41 K, 5010 kPa, x1 = 0.4 | 675.34
377.41 K, 5010 kPa, x1 = 0.8992 | 675.34
377.41 K, 10000 kPa, x1 = 0.4 | 684.66
377.41 K, 10000 kPa, x1 = 0.8992 | 684.66
377.41 K, 14980 kPa, x1 = 0.4 | 692.99
377.41 K, 14980 kPa, x1 = 0.8992 | 692.99
377.41 K, 19960 kPa, x1 = 0.4 | 700.52
377.41 K, 19960 kPa, x1 = 0.8992 | 700.52
377.41 K, 24950 kPa, x1 = 0.4 | 707.43
377.41 K, 24950 kPa, x1 = 0.8992 | 707.43
377.41 K, 29840 kPa, x1 = 0.801 | 699.24
377.41 K, 29860 kPa, x1 = 0.492 | 670
377.41 K, 29930 kPa, x1 = 0.4 | 713.82
377.41 K, 29930 kPa, x1 = 0.8992 | 713.82
377.41 K, 34850 kPa, x1 = 0.801 | 705.2
377.41 K, 34930 kPa, x1 = 0.4 | 719.78
377.41 K, 34930 kPa, x1 = 0.8992 | 719.78
377.41 K, 39850 kPa, x1 = 0.801 | 710.77
377.41 K, 39910 kPa, x1 = 0.4 | 725.35
377.41 K, 39910 kPa, x1 = 0.8992 | 725.35
377.41 K, 44860 kPa, x1 = 0.801 | 716
377.41 K, 44890 kPa, x1 = 0.4 | 730.6
377.41 K, 44890 kPa, x1 = 0.8992 | 730.6
377.41 K, 49850 kPa, x1 = 0.801 | 720.93
377.41 K, 49880 kPa, x1 = 0.4 | 735.58
377.41 K, 49880 kPa, x1 = 0.8992 | 735.58
377.41 K, 54850 kPa, x1 = 0.492 | 695.17
377.41 K, 54860 kPa, x1 = 0.4 | 740.29
377.41 K, 54860 kPa, x1 = 0.8992 | 740.29
377.41 K, 59860 kPa, x1 = 0.4 | 744.79
377.41 K, 59860 kPa, x1 = 0.8992 | 744.79
377.41 K, 64820 kPa, x1 = 0.492 | 703.44
377.41 K, 64830 kPa, x1 = 0.4 | 749.06
377.41 K, 64830 kPa, x1 = 0.8992 | 749.06
377.41 K, 69810 kPa, x1 = 0.4 | 753.19
377.41 K, 69810 kPa, x1 = 0.8992 | 753.19
377.41 K, 74900 kPa, x1 = 0.492 | 711.06
377.41 K, 79760 kPa, x1 = 0.4 | 760.91
377.41 K, 79760 kPa, x1 = 0.8992 | 760.91
377.41 K, 84740 kPa, x1 = 0.4 | 764.58
377.41 K, 84740 kPa, x1 = 0.8992 | 764.58
377.41 K, 89720 kPa, x1 = 0.4 | 768.12
377.41 K, 89720 kPa, x1 = 0.8992 | 768.12
377.41 K, 94700 kPa, x1 = 0.4 | 771.53
377.41 K, 94700 kPa, x1 = 0.8992 | 771.53
377.41 K, 99670 kPa, x1 = 0.4 | 774.85
377.41 K, 99670 kPa, x1 = 0.8992 | 774.85
377.41 K, 104650 kPa, x1 = 0.4 | 778.05
377.41 K, 104650 kPa, x1 = 0.8992 | 778.05
377.41 K, 109630 kPa, x1 = 0.4 | 781.18
377.41 K, 109630 kPa, x1 = 0.8992 | 781.18
377.41 K, 114600 kPa, x1 = 0.4 | 784.19
377.41 K, 114600 kPa, x1 = 0.8992 | 784.19
377.41 K, 114850 kPa, x1 = 0.492 | 736.23
377.41 K, 119570 kPa, x1 = 0.4 | 787.15
377.41 K, 119570 kPa, x1 = 0.8992 | 787.15
377.41 K, 124540 kPa, x1 = 0.4 | 790.02
377.41 K, 124540 kPa, x1 = 0.8992 | 790.02
377.41 K, 129820 kPa, x1 = 0.4 | 793
377.41 K, 129820 kPa, x1 = 0.8992 | 793
387.3 K, 19850 kPa, x1 = 0.611 | 656.37
387.31 K, 1350 kPa, x1 = 0.611 | 620.65
387.31 K, 4850 kPa, x1 = 0.611 | 628.99
387.31 K, 9850 kPa, x1 = 0.611 | 639.33
387.31 K, 14880 kPa, x1 = 0.611 | 648.36
387.31 K, 39860 kPa, x1 = 0.611 | 682.12
387.31 K, 49860 kPa, x1 = 0.611 | 692.49
387.31 K, 54850 kPa, x1 = 0.611 | 697.23
387.31 K, 64910 kPa, x1 = 0.611 | 706.07
387.31 K, 84880 kPa, x1 = 0.611 | 721.4
